Experimental data taken from the supplement of paper PMC8617591.

How the values were obtained:
[1] = test system: Mycobacterium tuberculosis Erdman (autoluminescent); assay: AUC25, normalised area under dose response up to IC25 (three-drug combination) (fraction (0-1)); higher = more potent at low dose
Experimental: (§1)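 DiaMOND equipotent three-drug combination dose responses (10 doses, 1.5- or 2-fold spacing, centred on IC90) against autoluminescent M. tuberculosis Erdman in 8 in vitro models. Read-out is OD600, or luminescence for the intracellular and dormancy models, normalised to untreated wells. Hill-fit Einf, AUC25 and GRinf are potency metrics; FIC50 and FIC90 are total Loewe fractional inhibitory concentrations as log2 (negative = synergy).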

[2] = test system: Mycobacterium tuberculosis Erdman (autoluminescent); assay: total FIC90 (Loewe) at 90% inhibition, three-drug combination (log2); higher = more antagonistic
Experimental: as §1

[3] = test system: Mycobacterium tuberculosis Erdman (autoluminescent); assay: Einf, fitted maximum growth inhibition of three-drug combination (fraction); higher = stronger maximal inhibition
Experimental: as §1

[4] = test system: Mycobacterium tuberculosis Erdman (autoluminescent); assay: GRinf, maximum normalised growth rate inhibition (three-drug combination) (unitless (-1 to 1)); higher = less effect (negative = killing)
Experimental: as §1

[5] = test system: Mycobacterium tuberculosis Erdman (autoluminescent); assay: total FIC50 (Loewe) at 50% inhibition, three-drug combination (log2); higher = more antagonistic
Experimental: as §1

COc1nc2ccc(Br)cc2cc1[C@@H](c1ccccc1)[C@@](O)(CCN(C)C)c1cccc2ccccc12 [bedaquiline] + CC(C)/N=c1\cc2n(-c3ccc(Cl)cc3)c3ccccc3nc-2cc1Nc1ccc(Cl)cc1 [clofazimine] + O=[N+]([O-])c1cn2c(n1)OC[C@@H](OCc1ccc(OC(F)(F)F)cc1)C2 [pretomanid]
Details	AUC25, [1]	Einf, [3]	GRinf, [4]	total FIC50, [5]	total FIC90, [2]
in vitro model: acidic pH 5.7, time point: constant (~7 days, model-specific)	0.106	0.809	-0.477	0.502	–
in vitro model: acidic pH 5.7, time point: terminal (~4-5 doublings, model-specific)	0.0881	0.968	-0.411	0.438	0.703
in vitro model: intracellular J774, time point: constant = terminal	–	0.986	-0.307	–	0.235

Details	AUC25, [1]	Einf, [3]	GRinf, [4]	total FIC50, [5]	total FIC90, [2]
in vitro model: butyrate, time point: constant (~7 days, model-specific)	0.0748	0.948	-0.105	0.0794	-0.148
in vitro model: butyrate, time point: terminal (~4-5 doublings, model-specific)	0.0598	0.982	-0.123	0.0162	-0.232
in vitro model: cholesterol 0.05 mM, time point: constant (~7 days, model-specific)	0.101	0.724	-0.148	0.099	–
in vitro model: cholesterol 0.05 mM, time point: terminal (~4-5 doublings, model-specific)	0.111	0.938	-0.208	0.567	0.307
in vitro model: cholesterol-high 0.2 mM, time point: constant (~7 days, model-specific)	0.0786	0.94	-0.226	0.161	0.852
in vitro model: cholesterol-high 0.2 mM, time point: terminal (~4-5 doublings, model-specific)	0.0851	1	-0.559	0.209	0.0625
in vitro model: dormancy (butyrate + nitrate, low O2), time point: constant (~7 days, model-specific)	0.0645	0.942	0.201	-0.378	-1.22
in vitro model: dormancy (butyrate + nitrate, low O2), time point: terminal (~4-5 doublings, model-specific)	0.077	0.996	-0.219	-1.08	-1.15
in vitro model: standard 7H9 glycerol, time point: constant = terminal	0.0956	0.967	-0.0799	-0.29	-0.495
in vitro model: valerate, time point: constant (~7 days, model-specific)	0.119	0.91	-0.0979	0.482	-0.269
in vitro model: valerate, time point: terminal (~4-5 doublings, model-specific)	0.0785	0.954	-0.0498	0.323	0.514

COc1nc2ccc(Br)cc2cc1[C@@H](c1ccccc1)[C@@](O)(CCN(C)C)c1cccc2ccccc12 [bedaquiline] + CC[C@@H](CO)NCCN[C@@H](CC)CO [ethambutol] + CC(=O)NC[C@H]1CN(c2ccc(N3CCOCC3)c(F)c2)C(=O)O1 [linezolid]
Details	AUC25, [1]	Einf, [3]	GRinf, [4]	total FIC50, [5]	total FIC90, [2]
in vitro model: acidic pH 5.7, time point: constant (~7 days, model-specific)	0.0748	0.822	-0.403	-0.0157	–
in vitro model: acidic pH 5.7, time point: terminal (~4-5 doublings, model-specific)	0.0941	0.977	-0.395	0.509	0.711
in vitro model: intracellular J774, time point: constant = terminal	–	0.922	-0.379	–	0.819

Details	AUC25, [1]	Einf, [3]	GRinf, [4]	total FIC50, [5]	total FIC90, [2]
in vitro model: butyrate, time point: constant (~7 days, model-specific)	0.0774	0.931	-0.0747	0.429	–
in vitro model: butyrate, time point: terminal (~4-5 doublings, model-specific)	0.0539	0.964	-0.0521	0.371	-0.223
in vitro model: cholesterol 0.05 mM, time point: constant (~7 days, model-specific)	0.151	0.783	-0.458	0.52	–
in vitro model: cholesterol 0.05 mM, time point: terminal (~4-5 doublings, model-specific)	0.159	0.946	-0.703	8.47	–
in vitro model: cholesterol-high 0.2 mM, time point: constant (~7 days, model-specific)	0.0976	0.984	-1	0.98	–
in vitro model: cholesterol-high 0.2 mM, time point: terminal (~4-5 doublings, model-specific)	0.114	1	-0.946	0.45	1.37
in vitro model: dormancy (butyrate + nitrate, low O2), time point: constant (~7 days, model-specific)	0.124	0.886	0.486	1.37	–
in vitro model: dormancy (butyrate + nitrate, low O2), time point: terminal (~4-5 doublings, model-specific)	0.127	0.989	-0.414	0.241	0.872
in vitro model: standard 7H9 glycerol, time point: constant = terminal	0.0754	0.943	-0.0326	0.387	–
in vitro model: valerate, time point: constant (~7 days, model-specific)	0.106	0.915	-0.161	0.715	–
in vitro model: valerate, time point: terminal (~4-5 doublings, model-specific)	0.0559	0.954	-0.121	0.85	-0.19

COc1nc2ccc(Br)cc2cc1[C@@H](c1ccccc1)[C@@](O)(CCN(C)C)c1cccc2ccccc12 [bedaquiline] + CC[C@@H](CO)NCCN[C@@H](CC)CO [ethambutol] + CO[C@H]1/C=C/O[C@@]2(C)Oc3c(C)c(O)c4c(O)c(c(/C=N/N5CCN(C6CCCC6)CC5)c(O)c4c3C2=O)NC(=O)/C(C)=C\C=C\[C@H](C)[C@H](O)[C@@H](C)[C@@H](O)[C@@H](C)[C@H](OC(C)=O)[C@@H]1C [rifapentine]
Details	AUC25, [1]	Einf, [3]	GRinf, [4]	total FIC50, [5]	total FIC90, [2]
in vitro model: acidic pH 5.7, time point: constant (~7 days, model-specific)	0.114	0.961	-0.423	-0.16	–
in vitro model: acidic pH 5.7, time point: terminal (~4-5 doublings, model-specific)	0.0469	0.98	-0.179	0.232	-0.455
in vitro model: intracellular J774, time point: constant = terminal	–	0.947	-0.165	–	-1.85

Details	AUC25, [1]	Einf, [3]	GRinf, [4]	total FIC50, [5]	total FIC90, [2]
in vitro model: butyrate, time point: constant (~7 days, model-specific)	0.0669	0.935	-0.0718	0.486	–
in vitro model: butyrate, time point: terminal (~4-5 doublings, model-specific)	0.0551	0.972	-0.0579	0.432	-0.198
in vitro model: cholesterol 0.05 mM, time point: constant (~7 days, model-specific)	0.0736	0.7	-0.229	0.896	–
in vitro model: cholesterol 0.05 mM, time point: terminal (~4-5 doublings, model-specific)	0.0689	0.896	-0.175	1	–
in vitro model: cholesterol-high 0.2 mM, time point: constant (~7 days, model-specific)	0.0263	0.996	-0.736	1.12	–
in vitro model: cholesterol-high 0.2 mM, time point: terminal (~4-5 doublings, model-specific)	0.0449	0.998	-0.697	1.03	1.09
in vitro model: dormancy (butyrate + nitrate, low O2), time point: constant (~7 days, model-specific)	0.125	0.891	0.428	1.06	–
in vitro model: dormancy (butyrate + nitrate, low O2), time point: terminal (~4-5 doublings, model-specific)	0.105	0.982	-0.0507	0.39	0.33
in vitro model: standard 7H9 glycerol, time point: constant = terminal	0.0577	0.931	0.00717	0.213	–
in vitro model: valerate, time point: constant (~7 days, model-specific)	0.0547	0.887	-0.0669	0.793	–
in vitro model: valerate, time point: terminal (~4-5 doublings, model-specific)	0.0403	0.948	-0.0709	0.823	-0.0548
